Data from patent US11977074B2, “Affinity-based detection of ligand-encoded synthetic biomarkers” (Massachusetts Institute of Technology, priority 2013, dated 2024).
Blank lines part the entries; values can stand above or below the compound they belong to. Where no end group is shown, it is not given here.

What was measured:
[1] = biological target: T1, thrombin (Mus musculus, UniProt P19221); assay: Urinary reporters in collagen/epinephrine thrombosis model by ELISA and LFA; assay type: in vivo, mice
T1 construct: from tissue; host or cells: blood and pulmonary thrombi of live Swiss Webster mice (thromboplastin or collagen/epinephrine induced)
Experimental: Collection and analysis of urinary peptides. […] Urine collection times were optimized from previous studies using these disease models^[30, 31] and are dependent on site of disease and rate of enzymatic substrate cleavage. Reporter concentration in unprocessed urine was assayed by above protocols from urine diluted 1:10^2L10^4 for ELISA or 1:4-5 for LFA. Data was analyzed using receiver-operator characteristic (ROC) curves (both) and Wilcoxon signed rank test (CRC) or Mann-Whitney test (thrombosis).
Immediately following infusion, mice were placed over 96-well plates enclosed by a cylindrical tube to collect urine for 30 m (thrombosis model) or 1 h (tumor model). Urine collection times were optimized from previous studies using these disease models^[30, 31] and are dependent on site of disease and rate of enzymatic substrate cleavage. Urine was stored at −80° C. directly following collection.
Unprocessed urine was diluted (1:100-1:10,000) in 1× PBS with 1% w/v BSA and reporters were quantified by ELISA (at least 2 replicates) using standards as described above. Urine was applied to lateral flow test strips in 5 μL volume, at 1:4 (thrombosis model) or 1:5 (CRC model) dilution. Lateral flow tests were performed in triplicate as described above and test strips were allowed to dry and were quantified by automated script as described above. ELISA and LFA data was analyzed using a Wilcoxon signed rank test (CRC) and a Mann-Whitney test (thrombosis).
Urine concentration is dependent on many host and environmental factors (e.g. diet, activity level, medical history, circadian rhythm); therefore, we sought to develop a normalization strategy for the test. It was hypothesized that co-administered free reporters would pass into the urine independent of disease state and could be used to normalize the level of reporters released by protease activity.

[2] = biological target: T2, thrombin (Homo sapiens, UniProt P00734); assay type: biochemical; parameters: with recombinant thrombin (15 nM; Haematologic Technologies); purchased Haematologic Technologies; conditions: R3 in tandem with thrombin-sensitive substrate on NWs; vs samples not exposed to thrombin
[3] = biological target: T3, MMP9 (Homo sapiens, UniProt P14780); assay: Fluorogenic NW assay with recombinant MMP9; assay type: biochemical; conditions: inhibitor 100 μM
T3 construct: purchased R&D Systems
Experimental: Fluorescent reporter-bound thrombin- or MMP-sensitive NWs (substrates PLGLRSW, SEQ ID NO: 3, or PLGVRGK, SEQ ID NO: 4, respectively) were introduced to recombinant thrombin or MMP9 (respectively). Release of homoquenched fluorophores upon proteolysis was read as increased fluorescence by plate reader at 37° C. Inhibitors Argatroban or Marimastat were incubated with the protease-NW cocktail at 100 μM. To quantify reporter release by LFA, reporter-functionalized NWs were incubated with cognate proteases, passed through a 30 kDa MW cutoff filter, quantified by LFA, and analyzed by Mann-Whitney test.
(SpectroMax Gemini EM microplate reader). Argatroban (Sigma) or Marimastat (Tocris) were incubated with the NW-protease cocktail at 100 μM final concentration. To assay proteolytic reporter release by LFA, reporter-functionalized enzyme sensitive NWs were incubated with MMP9 or thrombin as above at 37° C. for four hours and passed through a 30 kDa MW cutoff centrifugal filter. The filtered reporters were diluted to within LFA dynamic range and assayed by LFA as described below. Reporter stability experiments were performed using reporter 3 (1 μM) mixed in 1% w/v BSA with recombinant thrombin or MMP9 (both 15 nM) as above to 100 μL final volume and were incubated at 37° C. for 1 h. […]

[4] = system: MMP; assay: Urinary reporters in LS174T colorectal tumor model by ELISA and LFA; assay type: in vivo, mice; conditions: urine test, ELISA
Experimental: Collection and analysis of urinary peptides. […] Reporter concentration in unprocessed urine was assayed by above protocols from urine diluted 1:10^2L10^4 for ELISA or 1:4-5 for LFA. Data was analyzed using receiver-operator characteristic (ROC) curves (both) and Wilcoxon signed rank test (CRC) or Mann-Whitney test (thrombosis).
Immediately following infusion, mice were placed over 96-well plates enclosed by a cylindrical tube to collect urine for 30 m (thrombosis model) or 1 h (tumor model). […] Urine was stored at −80° C. directly following collection.

[5] = biological target: T2, thrombin; assay: Fluorogenic NW assay with recombinant thrombin; assay type: biochemical; parameters: with recombinant thrombin (15 nM; Haematologic Technologies); purchased Haematologic Technologies; conditions: inhibitor 100 μM
[6] = system: Swiss Webster mice; assay: Thromboplastin-induced thrombosis, VT750-fibrin(ogen) deposition in organs; assay type: in vivo; conditions: bivalirudin 10 mg/kg i.v. five minutes prior to thromboplastin
Experimental: Characterization of thromboplastin-induced thrombosis: Each vial of thromboplastin containing 3-4 mg (from rabbit brain, Sigma) was dissolved in 2 mL of PBS. To quantify fibrin deposition, bovine fibrinogen (Sigma) was reacted with 3-fold molar excess of VT750 for 1 hr at RT, and purified by centrifugal size filtration (size cutoff, Millipore). Swiss Webster mice (Taconic) were lightly anesthetized with isofluorane and administered mixtures of VT750-fibrinogen (1 nmol by VT750) with thromboplastin (n=3 mice per dose) via tail vein injections. After 30 minutes, mice were euthanized by CO2 asphyxiation and organs were scanned on the LI-COR Odyssey Infrared Imaging System. Fibrin(ogen) fluorescence in each organ was quantified using ImageJ software (NIH). To test thrombin inhibition, mice were intravenously administered bivalirudin (10 mg/kg) five minutes prior to co-injection of thromboplastin. […]
We next investigated the ability of the synthetic biomarkers to detect thrombosis in living mice induced via intravenous (i.v.) administration of thromboplastin. […] To quantify PE formation, mice were co-injected with thromboplastin and the clot precursor fibrinogen (labeled with the near-infrared fluorophore VT750) so that the formation of fibrin clots by thrombin-mediated proteolysis of fibrinogen could be quantified by fluorescence analysis of whole organs (FIG. 3A). […]

[7] = biological target: T1, thrombin; assay: Urinary monitoring of thromboplastin-induced thrombosis by ELISA; assay type: in vivo, mice; conditions: bivalirudin 10 mg/kg; thromboplastin 2 μl per g b.w.
Experimental: ELISA detection of bifunctionalized reporters: 96-well plates (Thermo Scientific) were incubated with either 0.8 μg/mL of anti-Flsc (GeneTex, GTX19224) or 0.4 μg/mL of anti-Alex Fluor 488 (Invitrogen, A11094) diluted in PBS overnight at 4° C. Plates were blocked with 1% w/v bovine serum albumin (Sigma) in PBS for 1 hr before 100 μL of samples were added. Reporters captured on the plate were then detected by adding 100 μL of 0.2 μg/mL neutravidin-HRP (Pierce), developed with 50 μL TMB solution (Thermo Scientific) for 5-15 minutes and quenched with 50 μL of HCl before the absorbance of the wells was determined by microplate analysis (SpectraMax Plus, Molecular Devices) at 450 nm. Plates were washed 3× with PBST between each steps and incubation occurred at RT unless otherwise stated.
Urinary monitoring of thrombosis. Experiments were conducted in a paired setup. […] Urine samples were stored at −80° C. until ELISA analysis.
The concentration of analytes in the urine is mainly dependent on the hydration state of the host (ranging from 50-1200 mOsm/kg H2O in humans)^[20] and is affected by many external factors (e.g. circadian rhythm, diet, activity, and others). […]

[8] = biological target: T2, thrombin; assay: Fluorogenic NW assay with purified thrombin; assay type: biochemical; parameters: mixed with human thrombin (2 μM); purchased Haematologic Technologies; conditions: bivalirudin 5 mg/mL, pre-incubated two minutes
Experimental: In vitro protease assays: NWs (200 nM by peptide) were mixed with human thrombin (2 μM), FVIIa (10 nM), FIXa (90 nM), FXa (160 nM), FXIa (31 nM), and activated protein C (60 nM, Haematologic Technologies) in a 384-well plate at 37° C. in activity buffers according to the manufacturer's instructions and monitored with a microplate reader (SpectroMax Gemini EM). […] For thrombin inhibition experiments, bivalirudin (Anaspec) was added to a final concentration of 5 mg/mL and pre-incubated for two minutes prior to addition of NWs.
To test substrate specificity, fluorophore-labeled derivatives were conjugated onto NWs at a valency sufficient to produce homoquenched substrates (˜40 peptides per NW) and then incubated the NWs with purified thrombin or a panel of blood clotting proteases (FXa, APC, FIXa, FVIIa, FXIa), each present at its maximal physiological concentration during thrombosis (FIG. 1B).

T3 sequence (P14780 94-707, species assumed): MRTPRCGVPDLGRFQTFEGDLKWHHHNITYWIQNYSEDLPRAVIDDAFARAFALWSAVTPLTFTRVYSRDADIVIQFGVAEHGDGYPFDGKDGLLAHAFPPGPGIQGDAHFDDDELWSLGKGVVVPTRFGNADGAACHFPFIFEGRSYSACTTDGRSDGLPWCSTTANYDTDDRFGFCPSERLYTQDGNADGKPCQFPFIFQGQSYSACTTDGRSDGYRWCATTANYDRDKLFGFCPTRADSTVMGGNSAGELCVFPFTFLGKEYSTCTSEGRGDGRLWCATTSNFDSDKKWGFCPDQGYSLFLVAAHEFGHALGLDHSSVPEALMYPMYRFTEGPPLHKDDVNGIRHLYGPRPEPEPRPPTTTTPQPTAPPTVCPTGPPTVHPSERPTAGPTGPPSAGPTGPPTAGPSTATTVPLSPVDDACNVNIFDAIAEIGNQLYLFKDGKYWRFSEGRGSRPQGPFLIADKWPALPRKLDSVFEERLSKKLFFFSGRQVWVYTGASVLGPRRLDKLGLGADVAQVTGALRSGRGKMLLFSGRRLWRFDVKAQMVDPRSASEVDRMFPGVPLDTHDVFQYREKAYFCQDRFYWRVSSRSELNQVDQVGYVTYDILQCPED

Compound: TMR-GluFib-Biotin [Reporter R3]
urinary level of reporter normalized against R4 in mice harboring thrombi ([1]; ELISA): significantly increased
urinary level of reporter of thrombin activity in mice harboring thrombi ([1]; ELISA, quantified independently): significantly increased
ratio of R3/R4 in diseased urine vs healthy controls ([1]; multiplexed paper strip (LFA)): statistically significant increase
detection of cleaved reporter from filtrate by LFA after thrombin cleavage [2]: readily detected

activity of MMP9 on MMP-sensitive NWs in presence of inhibitor [3]: no activity
Compound: CNC(=O)[C@@H](NC(=O)[C@H](CC(C)C)[C@H](O)C(=O)NO)C(C)(C)C [Marimastat]

Compound: MMP-sensitive NWs: PEG-coated iron oxide nanoworms with MMP9-cleavable substrate PLGVRGK and fluorescein, VT750 or R2 reporter (also: on PEG-coated iron oxide nanoworms, fluorescein, VT750 or R2 reporter)
ROC a.u.c, discrimination of CRC [4]: 0.90

fluorescence of thrombin-sensitive NWs with thrombin in presence of inhibitor [5]: No increase in fluorescence
Compound: CC1CNc2c(cccc2S(=O)(=O)N[C@@H](CCCNC(=N)N)C(=O)N2CC[C@@H](C)C[C@@H]2C(=O)O)C1 (stereo partly shown) [Argatroban]

Compound: bivalirudin
formation of PEs in pretreated animals [6]: readily prevented
urinary reporter levels in mice treated with inhibitor prior to thrombotic challenge [7]: abrogated
proteolysis of NWs by thrombin in the presence of inhibitor [8]: negligible proteolysis
